Usually IC50 stands for the concentration that gives 50% inhibition. For orientation: inhibition means the drop in the measured response relative to a control, in per cent.

This is an account of results in patent publication US5580854A, “Substrate-related peptidyl-aldehyde inhibitors of the proteolytic activity of the multicatalytic proteinase complex” (Mount Sinai School of Medicine of The City University of …, priority 1994, dated 1996).

Read-outs that look alike come from different tables or passages of the source. Peptide text beside a SMILES is read from it. * marks the point of attachment. Cbz = O=C(OCc1ccccc1)*

Test [1] concerns the target T1, PGPH component of the multicatalytic proteinase complex (MPC) (Bos taurus, UniProt Q3MHN0).
T1 construct: The MPC was isolated from frozen bovine pituitaries; tissue PelFreeze, Inc. (Rogers, Ark.) (supplier of the tissue; the enzyme was purified in house); host or cells: bovine pituitaries
As to the kind of experiment: PGPH activity of the MPC with Cbz-Leu-Leu-Glu-2NA; IC50. It is filed as biochemical, bovine. To be noted: substrate concentration of 0.64 mM; absence of SDS; read-out: IC50, PGPH activity. From the text:
(§1) The MPC was isolated from frozen bovine pituitaries, obtained from PelFreeze, Inc. (Rogers, Ark.) essentially as described in Orlowski & Michaud, Biochemistry 28:9270-9277 (1989), incorporated herein by reference.
The substrates Cbz-Gly-Gly-Leu-pNA, Cbz-D-Ala-Leu-Arg-2NA and Cbz-Leu-Leu-Glu-2NA were used to determine the activities of the ChT-L, T-L and PGPH components of the MPC, respectively, as previously described by Wilk and Orlowski, J. Neurochem. 35:1172-1182 (1980) and J. Neurochem 40:842-849 (1983), where pNA is p-nitroaniline and 2NA is 2-naphthylamide.The rate of release of the chromogenic group (aromatic amine) was measured after diazotization (Goldbarg & Rutenburg, Cancer 11:283-291 (1958) Bratton & Marshall, J. Biol. Chem. 128:537-550 (1939)).
Reaction mixtures contained 0.4 to 0.8 mM substrate, Tris-HCl buffer (0.05M; pH 8.0) and enzyme (1 to 3 μg) in a final volume of 0.25 ml. Incubations were at 37° C. The reactions were stopped by addition of an equal volume of 10% trichloroacetic acid and diazotization was then carried out.
Due to the sigmoidal relationship between reaction rate and substrate concentration for the PGPH activity, only IC50 values (inhibitor concentration giving 50% inhibition) at a substrate concentration of 0.64 mM were determined. […] Some inhibition of the ChT-L activity was also observed, although the Ki for this component was almost 20 times higher than that for the other three activities. […] Indeed, at the concentrations used, each of the inhibitors produced some activation of the T-L activity (data not shown).

Test [2] concerns the target T2, multicatalytic proteinase complex (MPC) (Bos taurus, UniProt Q2TBP0+Q32KL2+Q3MHN0).
T2 construct: The MPC was isolated from frozen bovine pituitaries; tissue PelFreeze, Inc. (Rogers, Ark.) (supplier of the tissue; the enzyme was purified in house); host or cells: bovine pituitaries
As to the kind of experiment: Histone H3 degradation by the MPC, HPLC. The conditions noted are these: 50 μM inhibitor. It is filed as biochemical, bovine. The protocol:
as §1
In vitro protein degrading activity of the MPC, and the effects of the various inhibitors of the present invention on such activity, was determined using β-casein and histone H3 as proteolytic substrates. For determining protein degrading activity in the presence and absence of inhibitors, incubation mixtures contained Tris-HCl buffer (0.05M, pH 8.0), β-casein or histone H3, 20 mM Mg^2+ where indicated, and inhibitor dissolved in dimethylsulfoxide, where indicated. In control samples, the inhibitor was replaced by an equal volume of dimethylsulfoxide alone.
In order to measure proteolysis by the MPC, and its inhibition by the inhibitors of the invention, aliquots of the reaction mixtures were removed after various incubation times and subjected to HPLC on a Deltapak column (C4; 5 μm; 300 A; 3.9×150 mm Waters). Elution of histone H3 was carried out with a linear gradient over 30 min. established between 30 and 50% acetonitrile (v/v) in water containing 0.1% trifluoroacetic acid (v/v) at a flow rate of 1 ml/min. Elution of β-casein was carried with a linear gradient established between 10 and 45% acetonitrile (v/v) in water containing 0.1% trifluoroacetic acid (v/v). The rate of protein degradation was determined by measuring the decrease of the peak height of the protein compared with controls in which the enzyme was omitted. Alternatively degradation of the proteins was determined by integrating the area under the peak of the protein at time zero and determining the decrease of the area after incubation with the enzyme.
Histone H3 used for testing the proteolytic activity of MPC was purified from a crude histone VIII S fraction (obtained from Sigma Chemical Co. St. Louis, Mo.) by HPLC. The material was applied to a Delta Pak C4-300A semipreparative column (15 μm; 7.8 mm×300 mm) equilibrated with 30% acetonitrile (v/v) in water solution, containing 0.1% trifluoroacetic acid (v/v). Elution was carried out at a flow rate of 4 ml/min with a linear, 50 min. gradient established between 30% and 50% acetonitrile (v/v) in water, each containing 0.1% trifluoroacetic acetic acid (v/v). The main protein peak was collected and the solvent was removed under reduced pressure. The protein was dissolved in water at a concentration of 1.85 mg/ml and used for experiments. The purified histone H3 was subjected to HPLC on an analytical Deltapak column (C4; 5 μm; 300 A; 3.9×150 mm; Waters) with a linear gradient established between 30 and 50% acetonitrile (v/v) in water, containing 0.1% trifluoroacetic acid (v/v). […]

As for `CC(C)C[C@@H](C=O)NC(=O)[C@H](Cc1ccccc1)NC(=O)[C@@H]1CCCN1C(=O)CNC(=O)OCc1ccccc1` [Cbz-Gly-Pro-Phe-Leu-CHO] (Cbz-GPFL-aldehyde), the IC50 in test [1] came to 3.1 µM. For the same molecule, the inhibition at 50 µM in test [2] (all histone H3 concentrations, read-out: inhibition of the rate of histone H3 degradation) is about 80%; in test [2] (histone H3 185 μg/ml, MPC 2.5 μg, read-out: Inhibition, histone H3 degradation), 77%; in test [2] (histone H3 370 μg/ml, MPC 2.5 μg, read-out: Inhibition, histone H3 degradation), 76%; in test [2] (histone H3 740 μg/ml, MPC 2.5 μg, read-out: Inhibition, histone H3 degradation) it was 86%.
